Laboratory results taken from article PMC3281519 (Journal of Medicinal Chemistry, 2011).
One block for each compound: values may come before it.

Legend:
[1] = biological target: T1, recombinant human sEH (Homo sapiens, UniProt P34913); assay: sEH IC50 kinetic fluorescent assay; type: biochemical
T1 sequence (P34913 1-555): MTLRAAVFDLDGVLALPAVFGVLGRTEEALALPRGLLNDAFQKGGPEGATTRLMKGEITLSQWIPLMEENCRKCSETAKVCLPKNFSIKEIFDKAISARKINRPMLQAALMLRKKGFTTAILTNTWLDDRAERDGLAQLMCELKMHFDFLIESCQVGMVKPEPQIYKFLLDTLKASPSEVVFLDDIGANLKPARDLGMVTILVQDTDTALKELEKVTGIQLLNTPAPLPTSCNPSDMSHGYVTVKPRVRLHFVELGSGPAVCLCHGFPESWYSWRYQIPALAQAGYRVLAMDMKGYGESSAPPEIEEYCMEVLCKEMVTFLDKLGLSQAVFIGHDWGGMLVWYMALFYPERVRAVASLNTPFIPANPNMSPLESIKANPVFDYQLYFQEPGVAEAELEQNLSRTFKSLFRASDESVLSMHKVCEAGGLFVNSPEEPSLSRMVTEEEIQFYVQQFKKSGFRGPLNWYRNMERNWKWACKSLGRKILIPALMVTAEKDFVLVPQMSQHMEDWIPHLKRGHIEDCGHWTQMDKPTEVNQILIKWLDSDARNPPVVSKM

[2] = biological target: T2, human recombinant COX-2 (Homo sapiens, UniProt P35354); assay: COX Fluorescent Inhibitor Screening Assay, COX-2; settings: compared to compound 21b
T2 sequence (P35354 18-604): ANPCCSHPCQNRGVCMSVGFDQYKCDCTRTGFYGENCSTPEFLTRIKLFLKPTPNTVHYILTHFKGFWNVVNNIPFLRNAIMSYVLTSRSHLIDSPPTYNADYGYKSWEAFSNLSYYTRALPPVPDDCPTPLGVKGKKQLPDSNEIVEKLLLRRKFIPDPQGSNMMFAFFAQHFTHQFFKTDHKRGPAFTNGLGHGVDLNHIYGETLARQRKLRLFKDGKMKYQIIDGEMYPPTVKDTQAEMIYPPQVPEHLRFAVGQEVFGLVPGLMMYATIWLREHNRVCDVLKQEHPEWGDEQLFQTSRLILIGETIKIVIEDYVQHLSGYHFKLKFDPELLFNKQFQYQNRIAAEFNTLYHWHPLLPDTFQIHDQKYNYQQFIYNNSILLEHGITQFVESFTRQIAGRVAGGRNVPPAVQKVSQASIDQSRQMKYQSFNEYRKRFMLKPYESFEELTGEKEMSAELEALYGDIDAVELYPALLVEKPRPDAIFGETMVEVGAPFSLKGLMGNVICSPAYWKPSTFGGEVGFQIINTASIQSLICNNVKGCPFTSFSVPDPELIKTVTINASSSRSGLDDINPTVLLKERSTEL

[3] = Pharmacokinetics after oral administration in rats; type: in vivo; settings: rat; compared with 21j
[4] = system: Sprague-Dawley rats; type: in vivo; settings: rats treated at 10 mg/kg s.c., observed over nine hours
[5] = system: U937 cell line; assay: Acute toxicity on U937 cell line; type: cell-based; settings: U937 cells
[6] = Pharmacokinetic screening by oral cassette dosing in mice; type: in vivo; settings: mouse; compared to 21i and 21j

improvement of sEH inhibition ([1]; compared to compound 11g): 3 fold
SMILES: NS(=O)(=O)c1ccc(-n2nc(CCNC(=O)Nc3cccc(C(F)(F)F)c3)cc2-c2ccccc2)cc1 [Compound 15, 4-(5-Phenyl-3-{2-[3-(3-trifluoromethyl-phenyl)-ureido]-ethyl}-pyrazol-1-yl)-benzenesulfonamide]

improvement of sEH inhibition ([1]; compared to compound 11g): 20 fold
decrease in AUC [6]: 8 fold
lower Cmax [6]: 15 fold
SMILES: NS(=O)(=O)c1ccc(-n2nc(CCCNC(=O)Nc3cccc(C(F)(F)F)c3)cc2-c2ccccc2)cc1 [Compound 21b, 4-(5-Phenyl-3-{3-[3-(3-trifluoromethyl-phenyl)-ureido]-propyl}-pyrazol-1-yl)-benzenesulfonamide]

improvement of sEH inhibition ([1]; compared with compound 11a): 10 fold
SMILES: CS(=O)(=O)c1ccc(-n2nc(CNC(=O)NC3CCCCCC3)cc2-c2ccccc2)cc1 [Compound 11b, 1-Cycloheptyl-3-[1-(4-methanesulfonyl-phenyl)-5-phenyl-1H-pyrazol-3-ylmethyl]-urea]

Continued, compound first:

SMILES: Cc1ccc(-c2cc(CCCNC(=O)Nc3cccc(C(F)(F)F)c3)nn2-c2ccc(S(N)(=O)=O)cc2)cc1 [Compound 21c]
diminished sEH activity ([1]; compared to compound 21b): 3 fold
diminished COX-2 activity [2]: 3 fold

SMILES: NS(=O)(=O)c1ccc(-n2nc(CCCNC(=O)Nc3ccc(C(F)(F)F)cc3)cc2-c2ccccc2)cc1 [Compound 21i, 4-(5-Phenyl-3-{3-[3-(4-trifluoromethyl-phenyl)-ureido]-propyl}-pyrazol-1-yl)-benzenesulfonamide]
higher Cmax [3]: 2 fold
overt signs of behavioral changes or acute toxicity [4]: no overt signs of any behavioral changes or acute observable symptoms of toxicity
acute toxicity on U937 cell line [5]: did not observe any acute toxicity
